The text below walks through data of US9034871B2, “Compounds for Alzheimer's disease” (priority 2004, dated 2015).

Where two headings read alike, the source gives them in different places.

Experiment [1] concerns Aβ42. The experiment is described as follows: Detection of secreted Aβ42 with Biosource ELISA kit in H4 cells expressing APP695. It counts as cell-based. As to the method: The present invention provides compositions and methods for lowering Aβ42 levels. To test whether compounds and compositions are capable of modulating Aβ levels, a sandwich enzyme-linked immunosorbent assay (ELISA) is employed to measure secreted Aβ (Aβ42 and/or Aβ40) levels. In this example, H4 cells expressing wide type APP695 are seeded at 200,000 cells/per well in 6 well plates, and incubated at 37 degree C. with 5% CO2 overnight. Cells are treated with 1.5 ml medium containing vehicle (DMSO) or a test compound at 1.25 μM, 2.5 μM, 5.0 μM and 10.0 μM (as well as other concentration if desirable) concentration for 24 hours or 48 hours. The supernatant from treated cells is collected into eppendorf tubes and frozen at −80 degree C. for future analysis.
The amyloid peptide standard is reconstituted and frozen samples are thawed. The samples and standards are diluted with appropriate diluents and the plate is washed 4 times with Working Wash Buffer and patted dry on a paper towel. 100 μL per well of peptide standards, controls, and dilutions of samples to be analyzed is added. The plate is incubated for 2 hours while shaking on an orbital plate shaker at RT. The plate is then washed 4 times with Working Wash Buffer and patted dry on a paper towel. Detection Antibody Solution is poured into a reservoir and 100 μL /well of Detection Antibody Solution is immediately added to the plate. The plate is incubated at RT for 2 hours while shaking and then washed four times with Working Wash Buffer and patted dry on a paper towel. Secondary Antibody Solution is then poured into a reservoir and 100 μL /well of Secondary Antibody Solution is immediately added to the plate. The plate is incubated at RT for 2 hours with shaking, washed 5 times with Working Wash Buffer, and patted dry on a paper towel.
100 μL of stabilized chromogen is added to each well and the liquid in the wells begins to turn blue. The plate is incubated for 30 minutes at room temperature and in the dark. 100 μL of stop solution is added to each well and the plate is tapped gently to mix resulting in a change of solution color from blue to yellow. The absorbance of each well is read at 450 nm having blanked the plate reader against a chromogen blank composed of 100 μL each of stabilized chromogen and stop solution. The plate is read within 2 hours of adding the stop solution. The absorbance of the standards is plotted against the standard concentration and the concentrations of unknown samples and controls are calculated.
These compounds were synthesized via the indicated synthetic route. Ab42 IC50 (uM) refers to IC50 value for Ab42 lowering in e.g., the assay described in Example 6.
(In an ELISA, binding on a coated surface is turned into a signal by an enzyme label.)

The conditions of experiment [2]: clinical trials in AD patients; cited from earlier work.
For experiment [3] the following is noted: large prevention trial, patients having mild cognitive impairment; placebo 4.5%; cited from earlier work.
[4] abbreviates: IC50 value for Ab42 lowering in e.g. the assay described in Example 6, read-out: Ab42 IC50.
Where [5] appears, read: cell based assay described in Example 6, read-out: Ab42 lowering IC50.
Where [6] appears, read: Ab42 lowering, cell based assay, read-out: Ab42 IC50.

Usually IC50 stands for the point on the concentration scale where inhibition reaches its midpoint. For `CC1CCc2c(cc(-c3ccccc3)n2-c2cccc(CCC(=O)O)c2)C1` (centres unmarked) [Compound 88, 3-[3-(5-methyl-2-phenyl-4,5,6,7-tetrahydroindol-1-yl)-phenyl] propionic acid], the IC50 in experiment [1] (setting [4]) came out at 27 µM.

As to `O=C(O)CCCc1ccc(-n2c(-c3ccccc3)cc3c4ccccc4ccc32)cc1` [Compound 89, 4-[4-(2-phenyl-benzo[e]indol-3-yl)-phenyl] butyric acid], in experiment [1] (setting [4]), the IC50 is 8 µM.

For the molecule `O=C(O)CCc1cccc(-n2c(-c3ccccc3)cc3c2CCCC3)c1` [Compound 90, 3-[3-(2-phenyl-4,5,6,7-tetrahydroindol-1-yl)-phenyl] propionic acid], the concentration for half-maximal inhibition (IC50) in experiment [1] (setting [4]) was found to be 54 µM.

With `CC1CCCc2c1cc(-c1ccccc1)n2-c1cccc(C(=O)O)c1` (centres unmarked) [Compound 91, 3-(4-methyl-2-phenyl-4,5,6,7-tetrahydroindol-1-yl) benzoic acid], the IC50 in experiment [1] (setting [4]) was found to be 3 µM.

For `O=C(O)Cc1ccccc1-n1c(-c2ccccc2)cc2c1CCc1ccccc1-2` [Compound 92, [2-(2-phenyl-4,5-dihydrobenzo[e]indol-3-yl)-phenyl] acetic acid], the 50% inhibitory concentration (IC50) in experiment [1] (setting [4]) worked out at 27 µM.

Take `c1ccc(-c2cc(-c3cc4c(n3-c3cccc(-c5nn[nH]n5)c3)CCc3ccccc3-4)on2)cc1` [Compound 138, 2-(3-phenylisoxazol-5-yl)-3-[3-(2H-tetrazol-5-yl)-phenyl]-4,5-dihydro-3H-benzo[e]indole]: in experiment [1] (setting [5]), the IC50 came to 10 µM.

In the case of `O=C(O)c1cccc(-n2c(-c3cc(-c4ccccc4)no3)cc3c2CCc2ccccc2-3)c1` [Compound 139], the half-inhibitory concentration (IC50) in experiment [1] (setting [5]) amounted to 2 µM.

Consider `COc1ccc2cc([C@H](C)C(=O)O)ccc2c1` [Naproxen], for which, in experiment [2], the “efficacy for treating AD” value is “failed to show efficacy”.

Turning to `c1ccc(-c2cc(-c3cc4c(n3-c3cccc(-c5nn[nH]n5)c3)CCc3ccccc3-4)on2)cc1` [drawing 1708, 2-(3-phenylisoxazol-5-yl)-3-[3-(2H-tetrazol-5-yl)-phenyl]-4,5-dihydro-3H-benzo[e]indole], the IC50 in experiment [1] (setting [6]) was 9.6 µM.

For `O=C(O)c1cccc(-n2c(-c3cc(-c4ccccc4)no3)cc3c2CCc2ccccc2-3)c1` [drawing 1709], in experiment [1] (setting [6]), the IC50 was found to be 2.2 µM.

For the molecule `c1ccc(-c2cc3c(n2-c2cccc(-c4nn[nH]n4)c2)CCc2ccccc2-3)cc1` [drawing 1720, 2-phenyl-3-[3-(2H-tetrazol-5-yl)-phenyl]-4,5-dihydro-3H-benzo[e]indole], the IC50 in experiment [1] (setting [6]) was found to be 24 µM.

Turning to `CS(=O)(=O)c1ccc(C2=C(c3ccccc3)C(=O)OC2)cc1` [rofecoxib], in experiment [2], the “efficacy for treating AD” value is reported as “failed to show efficacy”. In addition, the “patients who developed AD” value in experiment [3] was 6.4%.

Consider `CCC(C)(C)C1CCc2c(cc(-c3ccccc3)n2-c2nc(CC(=O)O)cs2)C1` (centres unmarked) [{2-[5-(1,1-dimethylpropyl)-2-phenyl-4,5,6,7-tetrahydroindol-1-yl]-thiazol-4-yl} acetic acid], for which the IC50 in experiment [1] (setting [6]) worked out at 6.5 µM.
